Data published in US7838122B2, “Hydrazide compounds with angiogenic activity” (Rutgers, the State University of New Jersey, priority 2003, dated 2010).
Each block holds one molecule with its values, some of them ahead of it.

Experiments:
[1] = Scaffold degradation study in SBF at 37° C. (HPLC, TGA, gravimetry)
Procedure: To determine degradation products of porous scaffolds (compositions used: 100/80, 50/40 and 25/20), hydrogel disks of various compositions samples were incubated at 37° C. in SBF at a constant weight to volume ratio of 5 mg/mL, maintaining a constant surface area to volume ratio. Over a one-week period, aliquots were removed and analyzed by HPLC. Buffer solutions were changed every two weeks to maintain sink conditions. Samples were analyzed over a 6-month period for degradation products in the buffer by HPLC, for water uptake by TGA, and mass loss by gravimetry. Aliquots of the degradation media were analyzed by HPLC. The HPLC system consisted of a reversed-phase (C18) column (Perkin-Elmer, Norwalk, Calif.), an LC pump (Model 410; Perkin-Elmer), a UV array detector at 220 nm (Model 235 Perkin-Elmer), an autoinjector (Model ISS-100; Perkin-Elmer), and a computerized data station (Turbochrom; Perking Elmer). A gradient system of water:acetonitrile was used as an eluent to capture each degradation product. Degradation was monitored using DT and DTE standards, and quantitation of degradation products was determined from the area under the signal peaks in the chromatogram after correlating to the standards. […] Mass loss was calculated as the % ratio of weight lost over initial weight. […]

[2] = tested on: Human aortic endothelial cells (HAEC); experiment: In vitro endothelial cell migration assay (transwell microchemotaxis chamber); assay type: cell-based
Procedure: Endothelial cells were known to respond to angiogenic factors which cause motility and mitosis, and ultimately the release of growth factors from the cells. Human aortic endothelial cells (HAEC) were cultured at passage 8 and maintained and fed with MCDB 131 media with EGM-2 (Clonetics) until the day of the experiment. Cultures were maintained at 37° C., 5% CO2 and 100% humidity. Comparisons were made of PEG-di-DT Hydrazide activity versus basic FGF-β. The PEG-di-DT hydrazide and basic FGF-β were dissolved in MCDB 131 media. Basic FGF-β was used as a positive control due to its well documented angiogenic activity and extensive testing. Dose-response curves were obtained for PEG-di-DT Hydrazide and basic FGF-β. PEG-dihydrazide, DT monomer, and PEG (Mw=2000), were prepared in MCDB 131 media according to Table 2, and were also tested. Migration assays were performed in a 24-well microchemotaxis chamber (Co-Star) containing transwells of untreated polycarbonate membranes with 8 μm pores. Both the transwells and well bottoms were coated overnight with a 10 μg/mL fibronectin solution (Calbiochem). HAE cells were harvested and resuspended at a concentration of 4.5×10^5 cells/0.1 mL in the corresponding medium. Media was also tested to determine baseline chemotaxis. The bottom wells were filled with 500 μL of test solution, and the transwells were seeded with […] and incubated for 6 hours at 37° C. The cells that migrated through the membrane were quantitated by counting the whole area of the filter using a grid and a (Olympus) microscope at 40× or 20× magnification.

[3] = tested on: Rat lung fibroblasts (RLF-6); experiment: Cytotoxicity, CellTiter96 Aqueous One Solution Cell Proliferation Assay; conditions: RFL-6 cells; serial dilutions 200 to 7.8 mg/mL in SBF; read at 490 nm
Procedure: In vitro biocompatibility studies of PEG-di-DT hydrazide were assessed by analyzing cytotoxicity. […] The CellTiter96® Aqueous One Solution Cell Proliferation Assay (Promega, Madison, Wis.) was used to determine cytotoxicity. Plates were read on a PowerWavex absorbance plate reader, (Bio-Tek Instrumentation, Inc., Highland Park, Vt.).
Cell toxicity studies were carried out in 96-well plates made of tissue-cultured polystyrene, and ˜3×10^3 cells were seeded in each well. Serial dilutions of PEG-di-DT hydrazide were prepared in concentrations ranging from 200 mg/mL to 7.8 mg/mL using SBF as the diluent. Volume of media was kept constant to prevent nutritional advantages. Filter-sterilized dilutions (n=6) were plated in a 96 well plate and controls of media+cells+diluent (to account for affects of the diluent), and media+cells (optimal cell culture conditions) were employed. […] The plates were incubated for 2 hours and read at 490 nm on an absorbance plate reader. Data were analyzed using a two-tailed Student t-test, establishing statistical significance at p<0.05 when compared to cells grown in the cell+media+diluent control.

Molecule: O=C(CCc1ccc(O)cc1)N[C@@H](Cc1ccc(O)cc1)C(=O)O [DT, desaminotyrosyl-tyrosine free carboxylic acid]
presence of degradation product during degradation ([1]; HPLC, 6-month study): continued to remain during the course of degradation | cell migration ([2]; HAEC, 6 hours at 37° C.): Neither PEG 2000 nor DT solutions caused cell migration to occur

time by which degradation product was undetectable by HPLC ([1]; degradation media of hydrogels, SBF, 37° C.): ≤ 12 weeks
Molecule: CCOC(=O)[C@H](Cc1ccc(O)cc1)NC(=O)CCc1ccc(O)cc1 [DTE, desaminotyrosyl-tyrosine ethyl ester]

Molecule: CC(O)C(=O)[O-].[Na+] (stereo not shown) [Sodium Lactate, sodium lactate]
Results of the Cytotoxicity Assay [3]: 3 mg/mL

Molecule: FGF-β: growth factor, known angiogenic substance used as positive control
dose dependence of cell migration ([2]; FIG. 7 / FIG. 8): dose dependent manner | minimum effective concentration (cell migration) ([2]; HAEC, 6 hours, FIG. 6): 0.01 µg/mL | cell migration response versus media alone ([2]; all concentrations tested): higher cell migration response than the media alone
